# Measured values from patent publication US12492184B2, “Heteroaryl compounds, preparation methods and uses thereof” (InventisBio Co., Ltd., priority 2020, dated 2025).
# System: HEK-Blue IL23 Reporter
# Experiment: HEK-Blue IL-23 STAT3 Reporter Assay
# Type: cell-based, human
# Conditions: HEK-Blue IL23 cells stimulated with IL-23 overnight; SEAP read with QUANTI-Blue at OD655
# Procedure: HEK-Blue IL23 cells (InvivoGen catalog #HKB-IL23) are designed for the detection of bioactive IL-23 by monitoring the activation of the STAT3 pathway. They were generated by stably introducing the genes for the human IL-23 receptor, STAT3, and the SEAP (secreted embryonic alkaline phosphatase) reporter gene into human HEK293 cell line.
# Briefly, around 50,000 cells in DMEM medium supplemented with 10% heat inactivated FBS (˜180 ul) were seeded into each well and incubate for 48 hours at 37° C. with 5% CO2 in air. On day 3, one microliter of compound and 20 ul IL-23 were transferred to the assay plate respectively. The plate was left in the 37° C. incubator overnight. Two microliter of cell supernatant was transferred to a 384-well plate, and 18 ul of resuspended QUANTI-Blue solution was added to each well. SLAP levels were determined using Tecan Spark at OD655.
# Cells with no IL23 added were used as Low control. Cells stimulated with IL23 were used as High control. Inhibition rate was calculated with the formula of % inhibition=100*(High control−Treated Well)/(High Control−Low control). IL-23 reporter assay inhibition IC50 was calculated with the equation of Y=Bottom+(Top-Bottom)/(1+10^((Log IC50−X)*HillSlope)).
row,SMILES,IC50 [nM]
1,"[2H]C([2H])([2H])NC(=O)c1nnc(NC(=O)[C@H]2CC23CC3)cc1Nc1ncccc1S1(=O)=NCCC1 (single isomer, unassigned) [Compound 94]",137
2,"[2H]C([2H])([2H])NC(=O)c1nnc(NC(=O)[C@H]2CC23CC3)cc1Nc1ncccc1S(C)(=O)=NC (single isomer, unassigned) [Compound 97]",1.4

# Same assay, conditions: Homo sapiens, HEK-Blue IL-23, HEK-Blue IL23 cells stimulated with IL-23 overnight; SEAP read with QUANTI-Blue at OD655
row,SMILES,IC50 [nM]
1,"[2H]C([2H])([2H])NC(=O)c1nnc(NC(=O)C2CC2)cc1Nc1ncc(OC(F)(F)F)cc1S(C)(=O)=O (single isomer, unassigned) [Compound 53]",1.9
2,"[2H]C([2H])([2H])NC(=O)c1nnc(NC(=O)C2CC2)cc1Nc1ncc(SC(F)(F)F)cc1S(C)(=O)=O (single isomer, unassigned) [Compound 54]",1.5
3,"[2H]C([2H])([2H])NC(=O)c1cnc(NC(=O)C2CC2)cc1Nc1ncc(F)cc1S(C)(=O)=O (single isomer, unassigned) [Compound 55]",1.5
4,"[2H]C([2H])([2H])NC(=O)c1nnc(NC(=O)C2CC2)cc1Nc1ncc(C(F)F)cc1S(C)(=O)=O (single isomer, unassigned) [Compound 58]",2.7
5,"[2H]C([2H])([2H])NC(=O)c1nnc(NC(=O)C2CC2)cc1Nc1ncc(OCCOC)cc1S(C)(=O)=O (single isomer, unassigned) [Compound 59]",0.4
6,"[2H]C([2H])([2H])NC(=O)c1nnc(NC(=O)C2CC2)cc1Nc1ncc(OC(F)F)cc1S(C)(=O)=O (single isomer, unassigned) [Compound 60]",1.7
7,[2H]C([2H])([2H])NC(=O)c1nnc(NC(=O)C2CC23CC3)cc1Nc1ncc(OC)cc1S(C)(=O)=O (centres unmarked) [Compound 1],3.5
8,[2H]C([2H])([2H])NC(=O)c1nnc(NC(=O)[C@@H]2CC23CC3)cc1Nc1ncc(OC)cc1S(C)(=O)=O [Compound 2],4.3
9,[2H]C([2H])([2H])NC(=O)c1nnc(NC(=O)C2CC23CC3)cc1Nc1ncc(F)cc1S(C)(=O)=O (centres unmarked) [Compound 3],7.1
10,[2H]C([2H])([2H])NC(=O)c1nnc(NC(=O)C2CC23CC3)cc1Nc1nccc(C)c1S(C)(=O)=O (centres unmarked) [Compound 4],39.3
11,[2H]C([2H])([2H])NC(=O)c1nnc(NC(=O)[C@H]2CC23CC3)cc1Nc1ncc(C2CC2)cc1S(C)(=O)=O [Compound 5],1.7
12,[2H]C([2H])([2H])NC(=O)c1nnc(NC(=O)C2CC23CC3)cc1Nc1nccc(CO)c1S(C)(=O)=O (centres unmarked) [Compound 6],18.8
13,[2H]C([2H])([2H])NC(=O)c1nnc(NC(=O)C2CC23CC3)cc1Nc1ncccc1S(C)(=N)=O (centres unmarked) [Compound 7],14.4
14,[2H]C([2H])([2H])NC(=O)c1nnc(NC(=O)C2CC23CC3)cc1Nc1nccc2c1S(C)(=O)=NC2 (centres unmarked) [Compound 8],2.6
15,[2H]C([2H])([2H])NC(=O)c1nnc(NC(=O)[C@H]2CC23CC3)cc1Nc1ccc(Cl)cc1S(C)(=O)=O [Compound 9],51
16,[2H]C([2H])([2H])NC(=O)c1nnc(NC(=O)[C@H]2CC23CC3)cc1Nc1cc(Cl)ccc1S(C)(=O)=O [Compound 10],1820
17,[2H]C([2H])([2H])NC(=O)c1nnc(NC(=O)C2CC23CC3)nc1Nc1ccccc1S(C)(=O)=O (centres unmarked) [Compound 11],121
18,CS(=O)(=O)c1cccnc1Nc1cc(NC(=O)C2CC23CC3)ncc1C(=O)C1CC1 (centres unmarked) [Compound 12],140
19,[2H]C([2H])([2H])NC(=O)c1nnc(NC(=O)[C@H]2CC23CC3)cc1Nc1ccncc1S(C)(=O)=O [Compound 13],346

row,SMILES,IC50 [nM]
1,[2H]C([2H])([2H])NC(=O)c1nnc(NC(=O)C2CC2)cc1Nc1ncc(OC)cc1S(C)(=O)=O [Compound 14],1.3
2,[2H]C([2H])([2H])NC(=O)c1nnc(NC(=O)C2CCC2)cc1Nc1ncc(OC)cc1S(C)(=O)=O [Compound 15],9.1
3,[2H]C([2H])([2H])NC(=O)c1nnc(NC(=O)C23CC(C2)C3)cc1Nc1ncc(OC)cc1S(C)(=O)=O [Compound 16],182
4,[2H]C([2H])([2H])NC(=O)c1nnc(NC(=O)C2CCCC2)cc1Nc1ncc(OC)cc1S(C)(=O)=O [Compound 17],13.8
5,[2H]C([2H])([2H])NC(=O)c1nnc(NC(=O)C(C)C)cc1Nc1ncc(OC)cc1S(C)(=O)=O [Compound 18],38.9
6,[2H]C([2H])([2H])NC(=O)c1nnc(NC(=O)OC)cc1Nc1ncc(OC)cc1S(C)(=O)=O [Compound 19],20.9
7,[2H]C([2H])([2H])NC(=O)c1nnc(NC23CC(C2)C3)cc1Nc1ncccc1S(C)(=O)=O [Compound 20],195
8,[2H]C([2H])([2H])NC(=O)c1nnc(NC(=O)NC2CC2)cc1Nc1ncccc1S(C)(=O)=O [Compound 21],8.9
9,[2H]C([2H])([2H])NC(=O)c1nnc(NC2CC2)cc1Nc1ncccc1S(C)(=O)=O [Compound 22],106
10,COC(=O)Nc1cc(Nc2ncccc2S(C)(=O)=O)c(C(N)=O)nn1 [Compound 23],58.5
11,[2H]C([2H])([2H])NC(=O)c1nnc(NC(=O)OC)cc1Nc1ncccc1S(C)(=O)=O [Compound 24],25.4
12,[2H]C([2H])([2H])NC(=O)c1nnc(-c2cc(C)n[nH]2)cc1Nc1ncccc1S(C)(=O)=O [Compound 25],≥ 1000
13,[2H]C([2H])([2H])NC(=O)c1nnc(NC(=O)[C@H]2CC23CC3)cc1Nc1ncc(OC)cc1S(C)(=O)=O [Compound 26],2.3
14,[2H]C([2H])([2H])NC(=O)c1nnc(NC(=O)C2CC2(C)C)cc1Nc1ncc(OC)cc1S(C)(=O)=O (centres unmarked) [Compound 27],24.2
15,[2H]C([2H])([2H])NC(=O)c1nnc(NC(=O)C2(C)CC2)cc1Nc1ncc(OC)cc1S(C)(=O)=O [Compound 28],35.1
16,[2H]C([2H])([2H])NC(=O)c1nnc(NC(=O)c2ccc(F)cc2)cc1Nc1ncc(OC)cc1S(C)(=O)=O [Compound 29],350
17,[2H]C([2H])([2H])NC(=O)c1nnc(NC(=O)c2ccn(C)n2)cc1Nc1ncc(OC)cc1S(C)(=O)=O [Compound 30],440
18,[2H]C([2H])([2H])NC(=O)c1nnc(NC(=O)[C@H]2CC23CC3)cc1Nc1ncc(C(F)(F)F)cc1S(C)(=O)=O [Compound 32],5.3
19,[2H]C([2H])([2H])NC(=O)c1nnc(NC(=O)[C@H]2CC23CC3)cc1Nc1ncc(C)cc1S(C)(=O)=O [Compound 33],0.9

row,SMILES,IC50 [nM]
1,[2H]C([2H])([2H])NC(=O)c1nnc(NC(=O)[C@H]2CC23CC3)cc1Nc1nccc(OC)c1S(C)(=O)=O [Compound 34],548
2,[2H]C([2H])([2H])NC(=O)c1nnc(NC(=O)C2(F)CC2)cc1Nc1ncc(OC)cc1S(C)(=O)=O [Compound 35],11
3,[2H]C([2H])([2H])NC(=O)c1nnc(NC(=O)C2CC(OC)C2)cc1Nc1ncc(OC)cc1S(C)(=O)=O (centres unmarked) [Compound 36],5.6
4,[2H]C([2H])([2H])NC(=O)c1nnc(NC(=O)[C@H]2[C@@H]3COC[C@@H]32)cc1Nc1ncc(OC)cc1S(C)(=O)=O [Compound 37],10.2
5,[2H]C([2H])([2H])NC(=O)c1nnc(NC(=O)[C@H]2[C@@H]3COC[C@@H]32)cc1Nc1ncccc1S(C)(=O)=O [Compound 38],15.3
6,[2H]C([2H])([2H])NC(=O)c1nnc(NC(=O)[C@H]2CC23CC3)cc1Nc1nc2c(cc1S(C)(=O)=O)CN(C(=O)OCc1ccccc1)CC2 [Compound 39],3.2
7,[2H]C([2H])([2H])NC(=O)c1nnc(NC(=O)[C@H]2CC23CC3)cc1Nc1nc2c(cc1S(C)(=O)=O)CNCC2 [Compound 40],54.4
8,[2H]C([2H])([2H])NC(=O)c1nnc(NC(=O)[C@H]2CC23CC3)cc1Nc1nc2c(cc1S(C)(=O)=O)CN(C)CC2 [Compound 41],12.7
9,[2H]C([2H])([2H])NC(=O)c1nnc(NC(=O)[C@H]2CC23CC3)cc1Nc1ncc(OCC)cc1S(C)(=O)=O [Compound 42],0.58
10,[2H]C([2H])([2H])NC(=O)c1nnc(NC(=O)[C@H]2CC23CC3)cc1Nc1ncc(OC(C)C)cc1S(C)(=O)=O [Compound 43],0.34
11,[2H]C([2H])([2H])NC(=O)c1nnc(NC(=O)[C@H]2CC23CC3)cc1Nc1ncc(CC)cc1S(C)(=O)=O [Compound 44],1
12,[2H]C([2H])([2H])NC(=O)c1nnc(NC(=O)C2CC2)cc1Nc1ncc(F)cc1S(C)(=O)=O [Compound 45],1.5
13,[2H]C([2H])([2H])NC(=O)c1nnc(NC(=O)C2CC2)cc1Nc1ncc(C2CC2)cc1S(C)(=O)=O [Compound 46],0.2
14,[2H]C([2H])([2H])NC(=O)c1nnc(NC(=O)C2CC2)cc1Nc1ncc(C(F)(F)F)cc1S(C)(=O)=O [Compound 47],1.4
15,[2H]C([2H])([2H])NC(=O)c1nnc(NC(=O)C2CC2)cc1Nc1ncc(C)cc1S(C)(=O)=O [Compound 48],0.46
16,[2H]C([2H])([2H])NC(=O)c1nnc(C(F)F)cc1Nc1ncccc1S(C)(=O)=O [Compound 49],> 1000
17,[2H]C([2H])([2H])NC(=O)c1nnc(Nc2cnc(C(C)(C)O)nc2)cc1Nc1ncc(OC)cc1S(C)(=O)=O [Compound 50],9.3
18,[2H]C([2H])([2H])NC(=O)c1nnc(NC(=O)NC2CC2)cc1Nc1ncc(OC)cc1S(C)(=O)=O [Compound 51],6.2
19,[2H]C([2H])([2H])NC(=O)c1nnc(NC(=O)C2CC2)cc1Nc1ncc(Cl)cc1S(C)(=O)=O [Compound 52],2.5
